The values that follow come from US8324250B2 (Hoffmann-La Roche Inc., priority 2009, dated 2012).

For the assay, the target named is T1, recombinant human NK3 receptor (Homo sapiens, UniProt P29371).
T1 construct: expressed in transfected cells; host or cells: HEK293 cells (transient expression), membranes
T1 sequence (P29371 1-465): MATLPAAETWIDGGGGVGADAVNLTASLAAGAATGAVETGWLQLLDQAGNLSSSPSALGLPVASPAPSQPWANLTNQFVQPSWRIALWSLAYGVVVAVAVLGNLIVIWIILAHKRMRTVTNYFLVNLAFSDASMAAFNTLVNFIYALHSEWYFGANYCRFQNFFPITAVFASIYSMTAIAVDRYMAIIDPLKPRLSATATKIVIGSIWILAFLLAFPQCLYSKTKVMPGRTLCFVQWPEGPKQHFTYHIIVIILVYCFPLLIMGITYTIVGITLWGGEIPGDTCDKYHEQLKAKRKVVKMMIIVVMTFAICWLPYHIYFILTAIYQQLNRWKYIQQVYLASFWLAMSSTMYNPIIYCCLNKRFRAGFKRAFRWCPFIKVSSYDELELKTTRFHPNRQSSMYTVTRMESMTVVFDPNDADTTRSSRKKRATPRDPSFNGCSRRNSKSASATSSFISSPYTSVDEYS
The assay can be described thus: [3H]SR142801 competition binding assay. Particulars: membranes from HEK293 cells transiently expressing recombinant human NK3 receptor; [3H]SR142801 radioligand; 75 min at RT; Ki by Cheng-Prussoff; read-out: Data Ki (hNK-3 receptor affinity). The method, then:
[^3H]SR142801 Competition Binding Assay
hNK3 receptor binding experiment were performed using [^3H]SR142801 (Catalog No. TRK1035, specific activity: 74.0 Ci/mmol, Amersham, GE Healthcare UK limited, Buckinghamshire, UK) and membrane isolated from HEK293 cells transiently expressing recombinant human NK3 receptor. After thawing, the membrane homogenates were centrifuged at 48,000×g for 10 min at 4° C., the pellets were resuspended in the 50 mM Tris-HCl, 4 mM MnCl2, 1 μM phosphoramidon, 0.1% BSA binding buffer at pH 7.4 to a final assay concentration of 5 μg protein/well. […] At the end of the incubation, membranes were filtered onto unitfilter (96-well white microplate with bonded GF/C filter preincubated 1 h in 0.3% PEI+0.3% BSA, Packard BioScience, Meriden, Conn.) with a Filtermate 196 harvester (Packard BioScience) and washed 4 times with ice-cold 50 mM Tris-HCl, pH 7.4 buffer. Nonspecific binding was measured in the presence of 10 μM SB222200 for both radioligands. The radioactivity on the filter was counted (5 min) on a Packard Top-count microplate scintillation counter with quenching correction after addition of 45 μl of microscint 40 (Can berra Packard S. A., Zurich, Switzerland) and shaking for 1 h. Inhibition curves were fitted according to the Hill equation: y=100/(1+(x/IC50)^nH), where nH=slope factor using Excel-fit 4 software (Microsoft). IC50 values were derived from the inhibition curve and the affinity constant (Ki) values were calculated using the Cheng-Prussoff equation Ki═IC50/(1+[L]/KD) where [L] is the concentration of radioligand and KD is its dissociation constant at the receptor, derived from the saturation isotherm. All experiments were performed in duplicate and the mean±standard error (SEM) of the individual Ki values was calculated.
`Cc1noc(-c2ccc(C(=O)N3CCC(C(=O)N[C@@H](C)c4ccccc4)(c4ccccc4)CC3)cc2)n1` [Example 43, 1-[4-(3-Methyl-[1,2,4]oxa-diazol-5-yl)-benzoyl]-4-phenyl-piperidine 4-carboxylic acid ((S)-1-phenyl-ethyl)-amide]: the Ki is 3.2 nM. To `C[C@H](NC(=O)C1(c2ccccc2)CCN(C(=O)c2ccc(-c3cncnc3)cc2)CC1)c1ccccc1` [Example 44, 4-Phenyl-1-(4-pyrimidin-5-yl-benzoyl)-piperidine-4-carboxylic acid ((S)-1-phenyl-ethyl)-amide] belongs 78.5 nM; to `C[C@H](NC(=O)C1(c2ccccc2)CCN(C(=O)c2ccc(-c3ccc(C(F)(F)F)cn3)cc2)CC1)c1ccccc1` [Example 45, 4-Phenyl-1-[4-(5-trifluorome-thyl-pyridin-2-yl)benzoyl]-piperidine-4-carboxylic acid ((S)-1-phenyl-ethyl)-amide], 26.7 nM; to `C[C@H](NC(=O)C1(c2ccccc2)CCN(C(=O)c2ccc(-c3ncccn3)cc2)CC1)c1ccccc1` [Example 47, 4-Phenyl-1-(4-pyrimidin-2-yl-benzoyl)-piperidine-4-carboxylic acid ((S)-1-phenyl-ethyl)-amide], 24.7 nM. On to `C[C@H](NC(=O)C1(c2ccccc2)CCN(C(=O)c2cnc(-c3ccccc3)nc2)CC1)c1ccccc1` [Example 52, 4-Phenyl-1-(2-phenyl-pyrimidine-5-carbonyl)-piperidine-4-carboxylic acid ((S)-1-phenyl-ethyl)-amide], for which the Ki was determined as 24.1 nM.

On to `C[C@H](NC(=O)C1(c2ccccc2)CCN(C(=O)c2ccc(-c3cccnc3)cc2)CC1)c1ccccc1` [Example 53, 4-Phenyl-1-(4-pyridin-3-yl-benzoyl)-piperidine-4-carboxylic acid ((S)-1-phenyl-ethyl)-amide], for which the Ki was found to be 23.2 nM. For the compound `C[C@H](NC(=O)C1(c2ccccc2)CCN(C(=O)c2ccc(-c3ccc(F)cc3)cc2)CC1)c1ccccc1` [Example 54, 1-(4′-Fluoro-biphenyl-4-carbonyl)-4-phenyl-piperidine-4-carboxylic acid ((S)-1-phenyl-ethyl)-amide], the Ki came to 7.2 nM.

Take `C[C@H](NC(=O)C1(c2ccccc2)CCN(C(=O)c2ccc(-c3ccc(C#N)cc3)cc2)CC1)c1ccccc1` [Example 55, 1-(4′-Cyano-biphenyl-4-carbonyl)-4-piperidine-phenyl-4-carboxylic acid ((S)-1-phenyl-ethyl)-amide]: the Ki turned out to be 14.8 nM. Regarding `C[C@H](NC(=O)C1(c2ccccc2)CCN(C(=O)c2ccc(-c3ccccc3)nc2)CC1)c1ccccc1` [Example 56], the Ki was 20.6 nM.

As to `CC(=O)c1ccc(-c2ccc(C(=O)N3CCC(C(=O)N[C@@H](C)c4ccccc4)(c4ccccc4)CC3)cc2)cc1` [Example 59, 1-(4′-Acetyl-biphenyl-4-carbonyl)-4-phenyl-piperidine-4-carboxylic acid ((S)-1-phenyl-ethyl)-amide], the Ki turned out to be 37 nM. To `CC(=O)c1cccc(-c2ccc(C(=O)N3CCC(C(=O)N[C@@H](C)c4ccccc4)(c4ccccc4)CC3)cc2)c1` [Example 60, 1-(3′-Acetyl-biphenyl-4-carbonyl)-4-phenyl-piperidine-4-carboxylic acid ((S)-1-phenyl-ethyl)-amide] belongs 31.5 nM. In the case of `C[C@H](NC(=O)C1(c2ccccc2)CCN(C(=O)C2CCN(c3ccc(C#N)cn3)CC2)CC1)c1ccccc1` [Example 61, 1-(5′-Cyano-3,4,5,6-tetrahydro-2H-[1,2′]bipyrid-inyl-4-carbonyl)-4-phenyl-piperidine-4-carboxylic acid ((S)-1-phenyl-ethyl)-amide] it was 37.9 nM; in that of `C[C@H](NC(=O)C1(c2ccccc2)CCN(C(=O)c2cc(-c3ccc(F)cc3)no2)CC1)c1ccccc1` [Example 62, 1-[3-(4-Fluoro-phenyl)-isoxazole-5-carbonyl]-4-phenyl-piperidine-4-carboxylic acid ((S)-1-phenyl-ethyl)-amide], 63.5 nM.

For `C[C@H](NC(=O)C1(c2ccccc2)CCN(C(=O)c2ccc(N3CCCCC3=O)cc2)CC1)c1ccccc1` [Example 63], the inhibition constant Ki was determined as 44.9 nM. To `C[C@H](NC(=O)C1(c2ccccc2)CCN(C(=O)c2ccc(-c3ccc(N)cc3)cc2)CC1)c1ccccc1` [Example 64, 1-(4′-Amino-biphenyl-4-carbonyl)-4-phenyl-piperidine-4-carboxylic acid ((S)-1-phenyl-ethyl)-amide] belongs 72.7 nM; to `CC(C)c1nc(-c2ccc(C(=O)N3CCC(C(=O)N[C@@H](C)c4ccccc4)(c4ccccc4)CC3)cc2)no1` [Example 66, 1-[4-(5-Isopropyl-[1,2,4]oxa-diazol-3-yl)-benzoyl]-4-phenyl-piperidine-4-carboxylic acid ((S)-1-phenyl-ethyl)-amide], 59 nM; to `Cc1nc(-c2ccc(C(=O)N3CCC(C(=O)N[C@@H](C)c4ccccc4)(c4ccccc4)CC3)cc2)cs1` [Example 68], 20.9 nM. To `C[C@H](NC(=O)C1(c2ccccc2)CCN(C(=O)c2ccc(-c3ccn(C)n3)cc2)CC1)c1ccccc1` [Example 69, l-[4-(1-Methyl-1 H-pyrazol-3-yl)-benzoyl]-4-phenyl-piperidine-4-carboxylic acid ((S)-1-phenyl-ethyl)-amide] belongs 77.3 nM. In the case of `CCc1nc(-c2ccc(C(=O)N3CCC(C(=O)N[C@@H](C)c4ccccc4)(c4ccccc4)CC3)cc2)no1` [Example 71, 1-[4-(5-Ethyl-[1,2,4]oxa-diazol-3-yl)-benzoyl]-4-phenyl-piperidine-4-carboxylic acid ((S)-1-phenyl-ethyl)-amide] it was 28.4 nM; in that of `C[C@H](NC(=O)C1(c2ccccc2)CCN(C(=O)c2ccc(-c3nnn(C)n3)cc2)CC1)c1ccccc1` [Example 72, 1-[4-(2-Methyl-2H-tetrazol-5-yl)-benzoyl]-4-phenyl-piperidine-4-carboxylic acid ((S)-1-phenyl-ethyl)-amide], 15.8 nM; in that of `Cc1noc(-c2ccc(C(=O)N3CCC(C(=O)N[C@@H](C)C4CCCCC4)(c4ccccc4)CC3)cc2)n1` [Example 74], 1 nM. `Cc1nc(-c2ccc(C(=O)N3CCC(C(=O)N[C@@H](C)C4CCCCC4)(c4ccccc4)CC3)cc2)no1` [Example 75, 1-[4-(5-Methyl-[1,2,4]oxa-diazol-3-yl)-benzoyl]-4-phenyl-piperidine-4-carboxylic acid ((S)-1-cyclohexyl-ethyl)-amide]: the Ki was determined as 3.9 nM. In the case of `Cc1noc(-c2ccc(C(=O)N3CCC(C(=O)N[C@@H](C)c4ccc(F)cc4)(c4ccccc4)CC3)cc2)n1` [Example 76, 1-[4-(3-Methyl-[1,2,4]oxa-diazol-5-yl)-benzoyl]-4-phenyl-piperidine-4-carboxylic acid [(S)-1-(4-fluoro-phenyl)-ethyl]-amide] it was 2.9 nM; in that of `Cc1nc(-c2ccc(C(=O)N3CCC(C(=O)N[C@@H](C)c4ccc(F)cc4)(c4ccccc4)CC3)cc2)no1` [Example 77, 1-[4-(5-Methyl-[1,2,4]oxa-diazol-3-yl)-benzoyl]-4-phenyl-piperidine-4-carboxylic acid [(S)-1-(4-fluoro-phenyl)-ethyl]-amide], 12.2 nM; in that of `C[C@H](NC(=O)C1(c2ccccc2)CCN(C(=O)c2ccc(N3CCS(=O)(=O)CC3)cc2)CC1)c1ccc(F)cc1` [Example 78, 1-[4-(1,1-Dioxo-1λ6-thiomor-pholin-4-yl)-benzoyl]-4-phenyl-piperidine-4-carboxylic acid [(S)-1-(4-fluoro-phenyl)-ethyl]-amide], 11.8 nM.

For `C[C@H](NC(=O)C1(c2ccccc2)CCN(C(=O)c2ccc(-c3ccc(F)cc3)cc2)CC1)c1ccc(F)cc1` [Example 79, 1-(4′-Fluoro-biphenyl-4-carbonyl)-4-phenyl-piperidine-4-carboxylic acid [(S)-1-(4-fluoro-phenyl)-ethyl]-amide], the Ki came out at 9.5 nM. In the case of `C[C@H](NC(=O)C1(c2ccccc2)CCN(C(=O)c2ccc(N3CCS(=O)(=O)CC3)cc2)CC1)C1CCCCC1` [Example 80, 1-[4-(1,1 - Dioxo-1λ6-thiomorpholin-4-yl)-benzoyl]-4-phenyl-piperidine-4-carboxylic acid ((S)-1-cyclohexyl-ethyl)-amide] it was 4.1 nM.
